{
  "source": "ChEMBL document CHEMBL3603758",
  "about": "“Geraniin inhibits TGF-β1-induced epithelial-mesenchymal transition and suppresses A549 lung cancer migration, invasion and anoikis resistance” (2015)",
  "key": {"A549 [1]": {"tested_on": "A549", "assay": "Antiproliferative activity against human A549 cells assessed as cell survival rate at 2.5 uM incubated for 48 hrs by CCK8 assay", "assay_type": "functional", "details": "A549, 48 h, read-out: Survival"}, "A549 [2]": {"tested_on": "A549", "assay": "Antiproliferative activity against human A549 cells assessed as inhibition of cell growth at 30 uM incubated for 48 hrs by CCK8 assay", "assay_type": "functional, cell-based"}, "[3]": {"molecular_target": "Mothers against decapentaplegic homolog 2 (Homo sapiens) (UniProt Q15796)", "sequence (Q15796 whole entry)": "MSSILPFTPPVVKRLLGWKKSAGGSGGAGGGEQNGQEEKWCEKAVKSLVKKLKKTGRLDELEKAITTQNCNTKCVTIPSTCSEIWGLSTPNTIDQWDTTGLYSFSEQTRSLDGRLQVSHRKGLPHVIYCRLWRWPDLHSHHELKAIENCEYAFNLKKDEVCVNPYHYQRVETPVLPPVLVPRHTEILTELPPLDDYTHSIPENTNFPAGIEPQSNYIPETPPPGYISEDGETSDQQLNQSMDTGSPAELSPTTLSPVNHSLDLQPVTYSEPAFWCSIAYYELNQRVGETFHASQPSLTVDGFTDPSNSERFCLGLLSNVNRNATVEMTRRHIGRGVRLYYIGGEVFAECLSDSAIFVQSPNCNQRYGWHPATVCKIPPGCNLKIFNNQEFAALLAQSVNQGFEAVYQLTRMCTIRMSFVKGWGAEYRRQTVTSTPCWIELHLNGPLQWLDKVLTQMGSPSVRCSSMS", "assay": "Inhibition of TGFbeta1-induced Smad2 phosphorylation in human A549 cells at 15 and 20 uM pre-treated for 2 hrs before TGFbeta1 stimulation for 48 hrs by Western blot method", "assay_type": "cell-based"}, "A549 [4]": {"tested_on": "A549", "assay": "Inhibition of TGFbeta1-induced cell invasion of human A549 cells at 15 and 20 uM incubated for 48 hrs by matrigel cell invasion assay", "assay_type": "functional, cell-based"}, "A549 [5]": {"tested_on": "A549", "assay": "Inhibition of TGFbeta1-induced increase in N-cadherin expression in human A549 cells at 15 and 20 uM pre-treated for 2 hrs before TGFbeta1 stimulation for 48 hrs by Western blot method", "assay_type": "functional, cell-based"}, "A549 [6]": {"tested_on": "A549", "assay": "Inhibition of TGFbeta1-induced increase in Snail gene expression in human A549 cells at 15 and 20 uM pre-treated for 2 hrs before TGFbeta1 stimulation for 48 hrs by qRT-PCR method", "assay_type": "functional, cell-based"}, "A549 [7]": {"tested_on": "A549", "assay": "Inhibition of TGFbeta1-induced reduction in E-cadherin expression in human A549 cells assessed as suppresion of mesenchymal phenotype at 15 and 20 uM pre-treated for 2 hrs before TGFbeta1 stimulation for 48 hrs by Western blot method", "assay_type": "functional, cell-based"}, "A549 [8]": {"tested_on": "A549", "assay": "Antiproliferative activity against human A549 cells assessed as cell survival rate at 20 uM incubated for 48 hrs by CCK8 assay", "assay_type": "functional", "details": "A549, 48 h, read-out: Survival"}, "A549 [9]": {"tested_on": "A549", "assay": "Inhibition of TGFbeta1-induced anoikis resistance in human A549 cells grown on poly-HEMA-coated tissue culture plates assessed reduction in cell proliferation at 15 and 20 uM pre-treated for 2 hrs before TGFbeta1 stimulation for 48 hrs by SRB assay", "assay_type": "functional, cell-based"}, "A549 [10]": {"tested_on": "A549", "assay": "Inhibition of TGFbeta1-induced anoikis resistance in human A549 cells grown on poly-HEMA-coated tissue culture plates assessed reduction in PARP cleavage at 15 and 20 uM pre-treated for 2 hrs before TGFbeta1 stimulation for 48 hrs by Western blot method", "assay_type": "functional, cell-based"}, "A549 [11]": {"tested_on": "A549", "assay": "Inhibition of TGFbeta1-induced reduction in E-cadherin expression in human A549 cells at 15 and 20 uM pre-treated for 2 hrs before TGFbeta1 stimulation for 48 hrs by Western blot method", "assay_type": "functional, cell-based"}, "A549 [12]": {"tested_on": "A549", "assay": "Inhibition of TGFbeta1-induced epithelial-mesenchymal transition in human A549 cells assessed as suppression of mesenchymal phenotype at 15 and 20 uM pre-treated for 2 hrs before TGFbeta1 stimulation for 48 hrs", "assay_type": "functional, cell-based"}, "A549 [13]": {"tested_on": "A549", "assay": "Antiproliferative activity against human A549 cells assessed as cell survival rate at 15 uM incubated for 48 hrs by CCK8 assay", "assay_type": "functional", "details": "A549, 48 h, read-out: Survival"}, "A549 [14]": {"tested_on": "A549", "assay": "Inhibition of TGFbeta1-induced increase in Snail protein expression in human A549 cells at 15 and 20 uM pre-treated for 2 hrs before TGFbeta1 stimulation for 48 hrs by Western blot method", "assay_type": "functional, cell-based"}, "A549 [15]": {"tested_on": "A549", "assay": "Inhibition of TGFbeta1-induced increase in vimentin expression in human A549 cells at 15 and 20 uM pre-treated for 2 hrs before TGFbeta1 stimulation for 48 hrs by Western blot method", "assay_type": "functional, cell-based"}, "A549 [16]": {"tested_on": "A549", "assay": "Antiproliferative activity against human A549 cells assessed as cell survival rate at 10 uM incubated for 48 hrs by CCK8 assay", "assay_type": "functional", "details": "A549, 48 h, read-out: Survival"}, "A549 [17]": {"tested_on": "A549", "assay": "Antiproliferative activity against human A549 cells assessed as effect on cell proliferation at =< 30 uM incubated for 24 hrs by CCK8 assay", "assay_type": "functional, cell-based"}, "A549 [18]": {"tested_on": "A549", "assay": "Antiproliferative activity against human A549 cells assessed as cell survival rate at 5 uM incubated for 48 hrs by CCK8 assay", "assay_type": "functional", "details": "A549, 48 h, read-out: Survival"}, "A549 [19]": {"tested_on": "A549", "assay": "Inhibition of TGFbeta1-induced cell migration of human A549 cells at 15 and 20 uM incubated for 48 hrs by wound healing assay", "assay_type": "functional, cell-based"}, "A549 [20]": {"tested_on": "A549", "assay": "Inhibition of TGFbeta1-induced anoikis resistance in human A549 cells grown on poly-HEMA-coated tissue culture plates at 15 and 20 uM pre-treated for 2 hrs before TGFbeta1 stimulation for 48 hrs", "assay_type": "functional, cell-based"}},
  "note": "Activity calls are given as the source filed them. The calls are words filed in the database; no cut-off is given here.",
  "data": [
    {"smiles": "O=C1O[C@H]2[C@@H]3OC(=O)c4cc(O)c(O)c(O)c4-c4c(cc(O)c(O)c4O)C(=O)OC[C@H]2O[C@@H](OC(=O)c2cc(O)c(O)c(O)c2)[C@@H]3OC(=O)c2cc(O)c(O)c3c2[C@@H]2C1=CC(=O)[C@](O)(O3)C2(O)O", "note": "[GERANIIN]", "values": [
      {"measurement": "viability at 2.5 µM", "setting": "A549 [1]", "result": "> 90", "unit": "%"},
      {"measurement": "growth inhibition (GI)", "setting": "A549 [2]", "result": "Active"},
      {"measurement": "inhibition", "setting": "[3]", "result": "Active"},
      {"measurement": "inhibition", "setting": "A549 [4]", "result": "Active"},
      {"measurement": "inhibition", "setting": "A549 [5]", "result": "Active"},
      {"measurement": "inhibition", "setting": "A549 [6]", "result": "Dose-dependent effect"},
      {"measurement": "inhibition", "setting": "A549 [7]", "result": "Active"},
      {"measurement": "viability at 20 µM", "setting": "A549 [8]", "result": "> 90", "unit": "%"},
      {"measurement": "inhibition", "setting": "A549 [9]", "result": "Dose-dependent effect"},
      {"measurement": "inhibition", "setting": "A549 [10]", "result": "Active"},
      {"measurement": "inhibition", "setting": "A549 [11]", "result": "Active"},
      {"measurement": "inhibition", "setting": "A549 [12]", "result": "Active"},
      {"measurement": "viability at 15 µM", "setting": "A549 [13]", "result": "> 90", "unit": "%"},
      {"measurement": "inhibition", "setting": "A549 [14]", "result": "Dose-dependent effect"},
      {"measurement": "inhibition", "setting": "A549 [15]", "result": "Active"},
      {"measurement": "viability at 10 µM", "setting": "A549 [16]", "result": "> 90", "unit": "%"},
      {"measurement": "Activity", "setting": "A549 [17]", "result": "inactive"},
      {"measurement": "viability at 5 µM", "setting": "A549 [18]", "result": "> 90", "unit": "%"},
      {"measurement": "inhibition", "setting": "A549 [19]", "result": "Dose-dependent effect"},
      {"measurement": "inhibition", "setting": "A549 [20]", "result": "Active"}
    ]}
  ]
}
